Test results reported in patent US20120076899A1, “SHELF STABLE MONATIN SWEETENED BEVERAGE” (Cargill, Incorporated, priority 2009, published 2012).

Columns and labels:
[1] = Total indole concentrations over range of dissolved oxygen concentrations (light box storage); format: physicochemical; conditions: continuous light ~2200 lux, 28° C., pH 2.8-3.0
Method: (§1) Synthetic R,R-monatin containing approximately 95.4% R,R-monatin monopotassium salt (dry basis) was obtained from CSIR (Modderfontein, South Africa). About 100 mg/L of this monatin was placed in a buffered solution at a pH of about 2.8-3.0 comprising 9 mM citric acid-trisodium citrate in high purity water and preserved with about 150 mg/L sodium benzoate. Dissolved O2 levels were either increased by bubbling compressed air or reduced by bubbling N2 (99.9% purity) through these samples until the target O2 concentrations were achieved. Dissolved O2 levels were determined at 20° C. using a FOXY fluorescence quenching O2 analyzer from Ocean Optics (Dunedin, Fla.). Samples were stored in clear, glass ampules (˜10 mL) after O2 adjustment and heat-sealed to create an air-tight enclosure. The samples were then exposed to light continuously (24 hours per day) in a light box (˜2200 lux light intensity) configured with a rotating carousel to provide even illumination. The source of light was provided by ultra-violet (UV) light wavelength transmitting bulbs and standard fluorescent bulbs. The heat produced by the lights warmed the samples to a temperature of about 28° C. Duplicate samples of each treatment were analyzed weekly for total indole concentrations via the following method.
(§2) Total indole (monatin and its intramolecular rearrangement products, monatin lactone and monatin lactam) concentrations were quantified by reversed phase HPLC at 40° C. using an Agilent Zorbax Eclipse C18 column with UV detection at 280 nm by PDA. The compounds were eluted by a gradient mobile phase consisting of (A) 1:1 methanol and acetonitrile (v:v) with 0.3% formic acid and 10 mM ammonium formate and (B) 0.3% formic acid in water with 10 mM ammonium formate. The integrated peak areas for the three (3) compounds were expressed in terms of monatin concentration (mg/L) based on a standard curve prepared for monatin. Thus, the extinction coefficient for monatin was applied to estimate concentrations of monatin lactone and monatin lactam since standards for these compounds were unavailable.

[2] = Total indole concentrations under various light, O2 and EMIQ conditions; format: physicochemical
Method: as §1, with “35” for “100”, “benzoate. To some samples 200 ppm SANMELIN™ AO-3000 enzymatically modified isoquercitrin (EMIQ) (San-Ei Gen F.F.I.—Osaka, Japan) was added.” for “benzoate.”, “then either stored in the dark, or” for “then”
as §2

- Total Indole Concentration ([1]; 0.4 mg/L O2, 0 Days): 104.0 mg/L
- Total Indole Concentration ([1]; 0.4 mg/L O2, 7 Days): 98.7 mg/L
- Total Indole Concentration ([1]; 0.4 mg/L O2, 14 Days): 102.9 mg/L
- Total Indole Concentration ([1]; 0.4 mg/L O2, 21 Days): 97.5 mg/L
- Total Indole Concentration ([1]; 0.4 mg/L O2, 28 Days): 96.2 mg/L
- Total Indole Concentration ([1]; 1.5 mg/L O2, 0 Days): 104.0 mg/L
- Total Indole Concentration ([1]; 1.5 mg/L O2, 7 Days): 97.1 mg/L
- Total Indole Concentration ([1]; 1.5 mg/L O2, 14 Days): 90.6 mg/L
- Total Indole Concentration ([1]; 1.5 mg/L O2, 21 Days): 93.3 mg/L
- Total Indole Concentration ([1]; 1.5 mg/L O2, 28 Days): 76.0 mg/L
- Total Indole Concentration ([1]; 4.0 mg/L O2, 0 Days): 104.0 mg/L
- Total Indole Concentration ([1]; 4.0 mg/L O2, 7 Days): 94.6 mg/L
- Total Indole Concentration ([1]; 4.0 mg/L O2, 14 Days): 71.3 mg/L
- Total Indole Concentration ([1]; 4.0 mg/L O2, 21 Days): 58.0 mg/L
- Total Indole Concentration ([1]; 4.0 mg/L O2, 28 Days): 14.6 mg/L
- Total Indole Concentration ([1]; 6.5 mg/L O2, 0 Days): 104.0 mg/L
- Total Indole Concentration ([1]; 6.5 mg/L O2, 7 Days): 97.0 mg/L
- Total Indole Concentration ([1]; 6.5 mg/L O2, 14 Days): 75.7 mg/L
- Total Indole Concentration ([1]; 6.5 mg/L O2, 21 Days): 54.7 mg/L
- Total Indole Concentration ([1]; 6.5 mg/L O2, 28 Days): 0.0 mg/L
- Total Indole Concentration ([1]; 8.3 mg/L O2, 0 Days): 104.0 mg/L
- Total Indole Concentration ([1]; 8.3 mg/L O2, 7 Days): 89.6 mg/L
- Total Indole Concentration ([1]; 8.3 mg/L O2, 14 Days): 49.9 mg/L
- Total Indole Concentration ([1]; 8.3 mg/L O2, 21 Days): 21.3 mg/L
- Total Indole Concentration ([1]; 8.3 mg/L O2, 28 Days): 0.0 mg/L
- Total Indole Concentration ([2]; Light Exposure NO, O2 8.3 mg/L, EMIQ 0 ppm, 0 Days): 36.3 mg/L
- Total Indole Concentration ([2]; Light Exposure NO, O2 8.3 mg/L, EMIQ 0 ppm, 7 Days): 36.5 mg/L
- Total Indole Concentration ([2]; Light Exposure NO, O2 8.3 mg/L, EMIQ 0 ppm, 14 Days): 37.0 mg/L
- Total Indole Concentration ([2]; Light Exposure NO, O2 8.3 mg/L, EMIQ 0 ppm, 21 Days): 41.0 mg/L
- Total Indole Concentration ([2]; Light Exposure NO, O2 8.3 mg/L, EMIQ 0 ppm, 28 Days): 37.5 mg/L
- Total Indole Concentration ([2]; Light Exposure NO, O2 8.3 mg/L, EMIQ 200 ppm, 0 Days): 35.5 mg/L
- Total Indole Concentration ([2]; Light Exposure NO, O2 8.3 mg/L, EMIQ 200 ppm, 7 Days): 35.3 mg/L
- Total Indole Concentration ([2]; Light Exposure NO, O2 8.3 mg/L, EMIQ 200 ppm, 14 Days): 43.3 mg/L
- Total Indole Concentration ([2]; Light Exposure NO, O2 8.3 mg/L, EMIQ 200 ppm, 21 Days): 36.2 mg/L
- Total Indole Concentration ([2]; Light Exposure NO, O2 8.3 mg/L, EMIQ 200 ppm, 28 Days): 33.5 mg/L
- Total Indole Concentration ([2]; Light Exposure NO, O2 <0.5 mg/L, EMIQ 0 ppm, 0 Days): 34.7 mg/L
- Total Indole Concentration ([2]; Light Exposure NO, O2 <0.5 mg/L, EMIQ 0 ppm, 7 Days): 32.8 mg/L
- Total Indole Concentration ([2]; Light Exposure NO, O2 <0.5 mg/L, EMIQ 0 ppm, 14 Days): 34.4 mg/L
- Total Indole Concentration ([2]; Light Exposure NO, O2 <0.5 mg/L, EMIQ 0 ppm, 21 Days): 32.8 mg/L
- Total Indole Concentration ([2]; Light Exposure NO, O2 <0.5 mg/L, EMIQ 0 ppm, 28 Days): 35.2 mg/L
- Total Indole Concentration ([2]; Light Exposure NO, O2 <0.5 mg/L, EMIQ 200 ppm, 0 Days): 34.7 mg/L
- Total Indole Concentration ([2]; Light Exposure NO, O2 <0.5 mg/L, EMIQ 200 ppm, 7 Days): 32.8 mg/L
- Total Indole Concentration ([2]; Light Exposure NO, O2 <0.5 mg/L, EMIQ 200 ppm, 14 Days): 34.4 mg/L
- Total Indole Concentration ([2]; Light Exposure NO, O2 <0.5 mg/L, EMIQ 200 ppm, 21 Days): 32.8 mg/L
- Total Indole Concentration ([2]; Light Exposure NO, O2 <0.5 mg/L, EMIQ 200 ppm, 28 Days): 35.2 mg/L
- Total Indole Concentration ([2]; Light Exposure YES, O2 8.3 mg/L, EMIQ 0 ppm, 0 Days): 36.3 mg/L
- Total Indole Concentration ([2]; Light Exposure YES, O2 8.3 mg/L, EMIQ 0 ppm, 7 Days): 15.3 mg/L
- Total Indole Concentration ([2]; Light Exposure YES, O2 8.3 mg/L, EMIQ 0 ppm, 14 Days): 4.5 mg/L
- Total Indole Concentration ([2]; Light Exposure YES, O2 8.3 mg/L, EMIQ 0 ppm, 21 Days): 0.0 mg/L
- Total Indole Concentration ([2]; Light Exposure YES, O2 8.3 mg/L, EMIQ 0 ppm, 28 Days): 0.0 mg/L
- Total Indole Concentration ([2]; Light Exposure YES, O2 8.3 mg/L, EMIQ 200 ppm, 0 Days): 34.7 mg/L
- Total Indole Concentration ([2]; Light Exposure YES, O2 8.3 mg/L, EMIQ 200 ppm, 7 Days): 32.7 mg/L
- Total Indole Concentration ([2]; Light Exposure YES, O2 8.3 mg/L, EMIQ 200 ppm, 14 Days): 28.4 mg/L
- Total Indole Concentration ([2]; Light Exposure YES, O2 8.3 mg/L, EMIQ 200 ppm, 21 Days): 26.0 mg/L
- Total Indole Concentration ([2]; Light Exposure YES, O2 8.3 mg/L, EMIQ 200 ppm, 28 Days): 22.5 mg/L
- Total Indole Concentration ([2]; Light Exposure YES, O2 <0.5 mg/L, EMIQ 0 ppm, 0 Days): 36.3 mg/L
- Total Indole Concentration ([2]; Light Exposure YES, O2 <0.5 mg/L, EMIQ 0 ppm, 7 Days): 35.9 mg/L
- Total Indole Concentration ([2]; Light Exposure YES, O2 <0.5 mg/L, EMIQ 0 ppm, 14 Days): 36.0 mg/L
- Total Indole Concentration ([2]; Light Exposure YES, O2 <0.5 mg/L, EMIQ 0 ppm, 21 Days): 38.8 mg/L
- Total Indole Concentration ([2]; Light Exposure YES, O2 <0.5 mg/L, EMIQ 0 ppm, 28 Days): 34.6 mg/L
- Total Indole Concentration ([2]; Light Exposure YES, O2 <0.5 mg/L, EMIQ 200 ppm, 0 Days): 34.7 mg/L
- Total Indole Concentration ([2]; Light Exposure YES, O2 <0.5 mg/L, EMIQ 200 ppm, 7 Days): 35.8 mg/L
- Total Indole Concentration ([2]; Light Exposure YES, O2 <0.5 mg/L, EMIQ 200 ppm, 14 Days): 33.9 mg/L
- Total Indole Concentration ([2]; Light Exposure YES, O2 <0.5 mg/L, EMIQ 200 ppm, 21 Days): 35.1 mg/L
- Total Indole Concentration ([2]; Light Exposure YES, O2 <0.5 mg/L, EMIQ 200 ppm, 28 Days): 29.3 mg/L
Compound: NC(CC(O)(Cc1c[nH]c2ccccc12)C(=O)O)C(=O)O (centres unmarked) [R,R-monatin, 2-hydroxy-2-(indol-3-ylmethyl)-4-aminoglutaric acid]
